Tested on: CHOP, BiP, and DR5 mRNA in HCT116 cells
Experiment: qPCR of UPR target transcripts (CHOP, BiP, DR5)
Type: cell-based, Homo sapiens
Conditions: for 2^-(deltaCq) CHOP / 2^-(deltaCq) DR5 total / Cq CHOP / Cq DR5 total / Cq(sample) - avg Cq(GAPDH), CHOP / Cq(sample) - avg Cq(GAPDH), DR5 total / avg. fold induction CHOP / avg. fold induction DR5 total / fold induction CHOP / fold induction DR5 total: Rep 2; for avg. fold induction CHOP / avg. fold induction DR5 total / fold induction CHOP / fold induction DR5 total: vs 24 hr cytoGFP (empty traffo); for avg. fold induction CHOP / avg. fold induction DR5 total: mean of 3 replicates
Experimental: Cells were grown in 6-well plates and harvested with 0.5 ml of TRIzol reagent (Life Technologies) per manufacturer’s protocol to extract RNA. For cDNA synthesis, 500 ng of total RNA was reverse transcribed with 2 μl of the SuperScript VILO master mix (Life Technologies # 11755050) in a total reaction volume of 10 μl following the manufacturer’s protocol for reaction temperature and duration. The reverse transcription product was diluted to 200 μl with 10 mM Tris-HCl pH 8.2 and used at 1:100 dilution for subsequent RT-PCR reactions.
PCR samples were prepared as described by manufacturer’s protocols from iQ SYBR Green Supermix (BioRad #17088800).
For each experiment, qRT-PCR reactions were set up in triplicate and run using a CFX96 Real Time System (Bio-Rad). Quantitation cycles were determined with CFX Manager 3.0 software (Bio-Rad) and then normalized to GAPDH as an internal control.

[1] = Compiled Reps INS RHO, average of 6 reps

RHO-GFP: GFP-tagged rhodopsin expressed from plasmid
2^-(deltaCq) CHOP (7 hr, replicate 2): 0.09032 | 2^-(deltaCq) DR5 total (7 hr, replicate 2): 0.04029 | Cq CHOP (7 hr, replicate 2): 23.1268 | Cq DR5 total (7 hr, replicate 2): 24.2914 | Cq(sample) - avg Cq(GAPDH), CHOP (7 hr, replicate 2): 3.4688 | Cq(sample) - avg Cq(GAPDH), DR5 total (7 hr, replicate 2): 4.633 | 2^-(deltaCq) CHOP (7 hr, replicate 3): 0.09401 | 2^-(deltaCq) DR5 total (7 hr, replicate 3): 0.03735 | Cq CHOP (7 hr, replicate 3): 23.069 | Cq DR5 total (7 hr, replicate 3): 24.4008 | Cq(sample) - avg Cq(GAPDH), CHOP (7 hr, replicate 3): 3.411 | Cq(sample) - avg Cq(GAPDH), DR5 total (7 hr, replicate 3): 4.743 | avg. fold induction CHOP (7 hr): 4.366 | avg. fold induction DR5 total (7 hr): 1.393 | fold induction CHOP (7 hr, replicate 1): 4.643 | fold induction DR5 total (7 hr, replicate 1): 1.47 | fold induction CHOP (7 hr, replicate 2): 4.143 | fold induction DR5 total (7 hr, replicate 2): 1.407 | fold induction CHOP (7 hr, replicate 3): 4.312 | fold induction DR5 total (7 hr, replicate 3): 1.304 | 2^-(deltaCq) CHOP (24 hr, replicate 1): 0.04125 | 2^-(deltaCq) DR5 total (24 hr, replicate 1): 0.04254 | Cq CHOP (24 hr, replicate 1): 23.6176 | Cq DR5 total (24 hr, replicate 1): 23.5731 | Cq(sample) - avg Cq(GAPDH), CHOP (24 hr, replicate 1): 4.6 | Cq(sample) - avg Cq(GAPDH), DR5 total (24 hr, replicate 1): 4.555 | 2^-(deltaCq) CHOP (24 hr, replicate 2): 0.03991 | 2^-(deltaCq) DR5 total (24 hr, replicate 2): 0.04129 | Cq CHOP (24 hr, replicate 2): 23.6651 | Cq DR5 total (24 hr, replicate 2): 23.6162 | Cq(sample) - avg Cq(GAPDH), CHOP (24 hr, replicate 2): 4.647 | Cq(sample) - avg Cq(GAPDH), DR5 total (24 hr, replicate 2): 4.598 | 2^-(deltaCq) CHOP (24 hr, replicate 3): 0.039 | 2^-(deltaCq) DR5 total (24 hr, replicate 3): 0.03658 | Cq CHOP (24 hr, replicate 3): 23.6985 | Cq DR5 total (24 hr, replicate 3): 23.7909 | Cq(sample) - avg Cq(GAPDH), CHOP (24 hr, replicate 3): 4.681 | Cq(sample) - avg Cq(GAPDH), DR5 total (24 hr, replicate 3): 4.773 | avg. fold induction CHOP (24 hr): 1.837 | avg. fold induction DR5 total (24 hr): 1.401 | fold induction CHOP (24 hr, replicate 1): 1.892 | fold induction DR5 total (24 hr, replicate 1): 1.485 | fold induction CHOP (24 hr, replicate 2): 1.831 | fold induction DR5 total (24 hr, replicate 2): 1.441 | fold induction CHOP (24 hr, replicate 3): 1.789 | fold induction DR5 total (24 hr, replicate 3): 1.277 | BiP avg fold change relative to empty (Compiled Reps INS RHO, average of 3 reps): 1.525 | CHOP avg fold change relative to empty [1]: 1.961 | DR5 avg fold change relative to empty [1]: 1.368 | GAPDH avg fold change relative to empty [1]: 1.006 | GFP construct avg fold change relative to empty [1]: 63.7569 | BiP fold change relative to empty (Compiled Reps INS RHO, rep 1): 1.759 | CHOP fold change relative to empty (Compiled Reps INS RHO, rep 1): 2.318 | DR5 fold change relative to empty (Compiled Reps INS RHO, rep 1): 1.2854 | GAPDH fold change relative to empty (Compiled Reps INS RHO, rep 1): 0.9696 | GFP construct fold change relative to empty (Compiled Reps INS RHO, rep 1): 45.8961 | BiP fold change relative to empty (Compiled Reps INS RHO, rep 2): 1.438 | CHOP fold change relative to empty (Compiled Reps INS RHO, rep 2): 1.9687 | DR5 fold change relative to empty (Compiled Reps INS RHO, rep 2): 1.492 | GAPDH fold change relative to empty (Compiled Reps INS RHO, rep 2): 1.117 | GFP construct fold change relative to empty (Compiled Reps INS RHO, rep 2): 55.1085 | BiP fold change relative to empty (Compiled Reps INS RHO, rep 3): 1.377 | CHOP fold change relative to empty (Compiled Reps INS RHO, rep 3): 1.972 | DR5 fold change relative to empty (Compiled Reps INS RHO, rep 3): 1.23 | GAPDH fold change relative to empty (Compiled Reps INS RHO, rep 3): 0.9232 | GFP construct fold change relative to empty (Compiled Reps INS RHO, rep 3): 65.8656 | CHOP fold change relative to empty (Compiled Reps INS RHO, rep 4): 1.892 | DR5 fold change relative to empty (Compiled Reps INS RHO, rep 4): 1.485 | GAPDH fold change relative to empty (Compiled Reps INS RHO, rep 4): 0.8039 | GFP construct fold change relative to empty (Compiled Reps INS RHO, rep 4): 62.5314 | CHOP fold change relative to empty (Compiled Reps INS RHO, rep 5): 1.831 | DR5 fold change relative to empty (Compiled Reps INS RHO, rep 5): 1.441 | GAPDH fold change relative to empty (Compiled Reps INS RHO, rep 5): 1.063 | GFP construct fold change relative to empty (Compiled Reps INS RHO, rep 5): 61.8163 | CHOP fold change relative to empty (Compiled Reps INS RHO, rep 6): 1.789 | DR5 fold change relative to empty (Compiled Reps INS RHO, rep 6): 1.277 | GAPDH fold change relative to empty (Compiled Reps INS RHO, rep 6): 1.16 | GFP construct fold change relative to empty (Compiled Reps INS RHO, rep 6): 91.3236 | UPR target gene transcription (HCT116, transfected 24 hr): upregulated BiP and CHOP mRNAs

Source: PMC7041945, “Misfolded proteins bind and activate death receptor 5 to trigger apoptosis during unresolved endoplasmic reticulum stress” (eLife, 2020)
